According to article PMC7449170, “ATI-2173, a Novel Liver-Targeted Non-Chain-Terminating Nucleotide for Hepatitis B Virus Cure Regimens” (Antimicrobial Agents and Chemotherapy, 2020):
“Also recorded” adds a separate entry of the source.

Columns and labels:
HK-2 human kidney cells = test: Cytotoxicity in HK-2 kidney cells (CellTiter-Glo); conditions: up to 100 μM, 72 h
Description: (§1) HK-2 human kidney cells were obtained from ATCC (Manassas, VA) and cultured in Gibco Keratinocyte serum-free medium (Thermo Fisher Scientific, Waltham, MA) supplemented with 10% FBS (Peak Serum, Wellington, CO). Human skeletal muscle cells were obtained from Lonza (Walkersville, MD) and cultured in SkGM-2 skeletal muscle cell growth medium-2 (Lonza). Both HK-2 and skeletal muscle cells were cultured humidified at 37°C and 5% CO2. Cryopreserved human primary hepatocytes and medium were received from Lonza. Cryopreserved iCell cardiomyocytes and cardiomyocyte medium were purchased from Stem Cell Technologies (Vancouver, BC, Canada). Cryopreserved human bone marrow mononuclear cells were purchased from Lonza with HemaTox Myeloid medium purchased from [sequence] […] All cryopreserved cells (human primary hepatocytes, iCell cardiomyocytes, and human bone marrow mononuclear cells) were stored in vapor phase liquid nitrogen until the day of plating. […] Serial dilutions of compounds in DMSO were as follows: 100, 10, 1, 0.1, 0.01, 0.001, 0.0001, and 0.00001 μM (final concentration of DMSO in medium was 0.5%). […]
(§2) Following incubation, cells were dosed and incubated for 72 h at 37°C and 5% CO2. Following incubation, the endpoint cell viability CellTiter-Glo 2.0 assay (Promega, San Luis Obispo, CA) was performed and luminescence data collected on a Synergy 4 plate reader (Biotek, Winooski, VT). […]

[1] = tested on: HBV genotype E (AB091255); test: microbe, parasite or virus in culture; assay type: cell-based; conditions: Hepatitis B virus, HepG2
HBV = test: Serum shift of anti-HBV EC50; assay type: cell-based, Hepatitis B virus; conditions: data not shown
HBV genotype D (U955551) = test: microbe, parasite or virus in culture; assay type: cell-based; conditions: Hepatitis B virus, HepG2
hepatitis C virus = test: Antiviral panel: hepatitis C virus; assay type: cell-based; conditions: up to 100 μM, data not shown
influenza virus = assay type: cell-based
[2] = tested on: HBV genotype G (AB064315); test: microbe, parasite or virus in culture; assay type: cell-based; conditions: Hepatitis B virus, HepG2
HBV rtV173L+M204I = test: microbe, parasite or virus in culture; assay type: cell-based; conditions: Hepatitis B virus, HepG2
HBV coreP25A = test: microbe, parasite or virus in culture; assay type: cell-based, Hepatitis B virus; conditions: Hepatitis B virus, HepG2
[3] = tested on: human immunodeficiency virus 1; test: Antiviral panel: human immunodeficiency virus 1; assay type: cell-based; conditions: up to 100 μM, data not shown
iCell cardiomyocytes = test: Cytotoxicity in iCell cardiomyocytes (CellTiter-Glo); conditions: up to 100 μM, 72 h
Description: as §1, §2

HepG2 cells = test: Mitochondrial toxicity, glucose/galactose assay; conditions: 20 mM glucose or 10 mM galactose, up to 100 μM, day 11
[4] = tested on: SkMC human skeletal muscle cells; test: Cytotoxicity in skeletal muscle cells (CellTiter-Glo); conditions: at 100 μM or greater, 72 h
Description: as §1, §2

[5] = tested on: HBV genotype C (AB246345); test: microbe, parasite or virus in culture; assay type: cell-based; conditions: Hepatitis B virus, HepG2
HBV rtM204I = test: microbe, parasite or virus in culture; assay type: cell-based; conditions: Hepatitis B virus, HepG2
HBV rtS202G+M204I+M250V = test: microbe, parasite or virus in culture; assay type: cell-based; conditions: Hepatitis B virus, HepG2
[6] = tested on: HBV genotype A (HE974371); test: microbe, parasite or virus in culture; assay type: cell-based; conditions: Hepatitis B virus, HepG2
[7] = Hepatic extraction in portal vein cannulated monkeys; assay type: in vivo; conditions: cynomolgus monkeys with portal vein cannulation, single oral 20 mg/kg and intravenous 2 mg/kg, data not shown
HBV rtM204V = test: microbe, parasite or virus in culture; assay type: cell-based; conditions: Hepatitis B virus, HepG2
[8] = tested on: human bone marrow mononuclear cells; test: Cytotoxicity in bone marrow mononuclear cells (CellTiter-Glo); conditions: at 100 μM or greater, 72 h
Description: HK-2 human kidney cells were obtained from ATCC (Manassas, VA) and cultured in Gibco Keratinocyte serum-free medium (Thermo Fisher Scientific, Waltham, MA) supplemented with 10% FBS (Peak Serum, Wellington, CO). Human skeletal muscle cells were obtained from Lonza (Walkersville, MD) and cultured in SkGM-2 skeletal muscle cell growth medium-2 (Lonza). Both HK-2 and skeletal muscle cells were cultured humidified at 37°C and 5% CO2. Cryopreserved human primary hepatocytes and medium were received from Lonza. Cryopreserved iCell cardiomyocytes and cardiomyocyte medium were purchased from Stem Cell Technologies (Vancouver, BC, Canada). Cryopreserved human bone marrow mononuclear cells were purchased from Lonza with HemaTox Myeloid medium purchased from [sequence] […] All cryopreserved cells (human primary hepatocytes, iCell cardiomyocytes, and human bone marrow mononuclear cells) were stored in vapor phase liquid nitrogen until the day of plating. […] Serial dilutions of compounds in DMSO were as follows: 100, 10, 1, 0.1, 0.01, 0.001, 0.0001, and 0.00001 μM (final concentration of DMSO in medium was 0.5%).
HK-2 and skeletal muscle cells were seeded into 96-well plates at 5,000 cells/well and incubated overnight at 37°C and 5% CO2. Human hepatocytes were thawed, diluted in hepatocyte plating medium (Lonza) and seeded into a 96-well, collagen-coated plates at 2.5 × 10^4 cells/well. Hepatocytes were incubated for 6 h at 37°C in 5% CO2, then the medium was aspirated and replaced with hepatocyte culture medium at 50 μl/well, and finally incubated overnight. The iCell cardiomyocytes were thawed, suspended in iCell thawing/plating medium, and plated at 4 × 10^4 cells/well in a gelatin-coated 96-well plate. iCells were incubated for 2 days at 37°C in 7% CO2. […]
as §2

HBV rtA181V = test: microbe, parasite or virus in culture; assay type: cell-based; conditions: Hepatitis B virus, HepG2
[9] = tested on: HBV genotype B (JN406371); test: microbe, parasite or virus in culture; assay type: cell-based; conditions: Hepatitis B virus, HepG2
HBV rtL180M+M204V = test: microbe, parasite or virus in culture; assay type: cell-based; conditions: Hepatitis B virus, HepG2
HBV wild type (U95551) = test: Cross-resistance in transfected HepG2 cells, wild type; assay type: cell-based, Hepatitis B virus; conditions: Hepatitis B virus
HBV coreT33N = test: microbe, parasite or virus in culture; assay type: cell-based, Hepatitis B virus; conditions: Hepatitis B virus, HepG2
[10] = tested on: HBV genotypes A, B, C, D, E, F, G, and H; test: microbe, parasite or virus in culture; assay type: cell-based; conditions: Hepatitis B virus, HepG2, read-out: EC50 across HBV genotypes A to H
[11] = tested on: HBV genotype F (HE974369); test: microbe, parasite or virus in culture; assay type: cell-based; conditions: Hepatitis B virus, HepG2
[12] = tested on: HBV genotype H (AB179747); test: microbe, parasite or virus in culture; assay type: cell-based; conditions: Hepatitis B virus, HepG2
HBV genotype D = test: microbe, parasite or virus in culture; conditions: Hepatitis B virus, Hepatocyte, 192 h, read-out: EC50, HBV DNA
Description: HBV genotype D was concentrated from HepDE19 culture supernatants (2.53 × 10^10 genome equivalents [GE]/ml) and provided by WuXi. On day 0, hepatocytes were seeded into a 48-well plate at a density of 1.32 × 10^5 cells/well. On day 1, hepatocytes were infected with 200 HBV GE/cell and were cultured at 37°C and 5% CO2. […] On day 8, the culture supernatants were collected and HBV DNA was harvested with QIAamp 96 DNA blood kit (Qiagen, 51162).

[13] = Food effect on plasma exposure in rats; assay type: in vivo; conditions: single oral 50 mg/kg, data not shown
Protein binding = assay type: in vitro ADME; conditions: data not shown
HBV rtS202G+M204I = test: microbe, parasite or virus in culture; assay type: cell-based; conditions: Hepatitis B virus, HepG2
[14] = tested on: cryopreserved primary human hepatocytes; test: Cytotoxicity in primary human hepatocytes (CellTiter-Glo); conditions: up to 100 μM, 72 h
Description: as §1, §2

herpes simplex virus 1 = test: Antiviral panel: herpes simplex virus 1; assay type: cell-based; conditions: up to 100 μM, data not shown

Cc1cn(C2OC(COP(=O)(NC(C)C(=O)OC(C)C)Oc3ccccc3)C(O)C2F)c(=O)[nH]c1=O (stereo not shown) [ATI-2173]
Cytotoxicity (HK-2 human kidney cells): did not demonstrate any cytotoxicity | EC50 [1]: 427 nM | Serum shift in EC50 (HBV): no clear serum shift | EC50 (HBV genotype D (U955551)): 234 nM | Antiviral efficacy (hepatitis C virus): no detectable efficacy | Antiviral efficacy (influenza virus): no detectable efficacy | EC50 [2]: 230 nM | EC50 (HBV rtV173L+M204I): > 10000 nM | EC50 (HBV coreP25A): 537 nM | Antiviral efficacy [3]: no detectable efficacy | Cytotoxicity (iCell cardiomyocytes): did not demonstrate any cytotoxicity | Mitochondrial toxicity (cell viability in glucose versus galactose medium) (HepG2 cells): no apparent mitochondrial toxicity | Cytotoxicity [4]: Minimal cytotoxicity; also recorded: very mild | EC50 [5]: 227 nM | EC50 (HBV rtM204I): > 10000 nM | EC50 (HBV rtS202G+M204I+M250V): > 10000 nM | EC50 [6]: 416 nM | Hepatic extraction [7]: 82% | EC50 (HBV rtM204V): 162 nM | Cytotoxicity [8]: Minimal cytotoxicity and mild | EC50 (HBV rtA181V): > 10000 nM | EC50 [9]: 212 nM | EC50 (HBV rtL180M+M204V): > 10000 nM | EC50 (HBV wild type (U95551)): 601 nM | EC50 (HBV coreT33N): 338 nM | EC50 [10]: 212 to 718 nM | EC50 [11]: 328 nM | EC50 [12]: 718 nM | EC50 (HBV genotype D): 1.31 nM | Difference in plasma exposure (Cmax or AUC0-last) to ATI-2173 or clevudine, fed versus fasted [13]: no discernible differences | fraction unbound (Protein binding): ~0.45 | EC50 (HBV rtS202G+M204I): > 10000 nM | Cytotoxicity [14]: did not demonstrate any cytotoxicity | Antiviral efficacy (herpes simplex virus 1): no detectable efficacy
